From patent publication US11091514B2, “Peptide macrocycles and use thereof in the treatment of bacterial infections” (Hoffmann-La Roche Inc., priority 2017, dated 2021)

tested on: A. baumannii strain ATCC19606; type: cell-based, Acinetobacter baumannii; settings: ATCC19606, 20 h
Procedure: The in vitro antimicrobial activity of the compounds was determined through microbroth minimum inhibitory concentration (MIC) methodology performed according to the Clinical and Laboratory Standard Institute guidelines (CLSI-M07-A9 January 2012. Methods for Dilution Antimicrobial Susceptibility Tests for Bacteria That Grow Aerobically; Approved Standard Ninth Edition, Clinical and Laboratory Standards Institute, Wayne/PA, US and the CLSI-M100-S24 January 2014. Performance Standards for Antimicrobial Susceptibility Testing; Approved Standard—Fourth Informational Supplement, Clinical and Laboratory Standards Institute, Wayne/PA, US).
The compound stock solution was freshly prepared at 10× the required top concentration for the MIC determination, i.e. at 1280 mg/L, by reconstitution of the dry compound in 50:50 water:DMSO.
Polystyrene non-treated 96 wells microtiter plates were used for preparing panel containing compound serial twofold diluted at two times the final testing concentration (e.g. range from 64 to 0.06 μg/ml) in cation adjusted Mueller Hinton broth medium (CAMHB).
Inoculum was prepared by the “direct colony suspension method”. Colonies of A. baumannii ATCC19606 or clinical isolates were suspended in saline solution and adjusted to 0.5 McFarland, diluted 100 times in CAMHB broth and 50 μl added to each well (final concentration of cells˜5×10^(5) CFU/ml and Final volume/well of 100 μl). Microtiter plates were sealed and incubated at 35±2° C.
MICs values were read after 20 hours of incubation and recorded as the lowest concentration of the antimicrobial that inhibits more or equal to 80% of growth of the organism as detected by the unaided eye and using a microtiter plate optical density reader (OD 600 nm).
Table 1 provides the minimum inhibitory concentration (MIC) in microgram per milliliter of the compounds of present invention obtained against the A. baumannii strain ATCC19606.

ATCC19606 MIC (minimum inhibitory concentration) [µg/mL] | SMILES
16 | CN1C(=O)[C@H](CCCCN)NC(=O)[C@H](CCCN)NCc2cccc(c2F)-c2ccccc2CNC(=O)[C@@H]1Cc1c[nH]c2ccccc12 [Example 10, (11S,14S,17S)-14-(4-Amino-butyl)-17-(3-amino-propyl)-24-fluoro-11-(1H-indol-3-ylmethyl)-12-methyl-9,12,15,18-tetraaza-tricyclo[18.3.1.0*2,7]tetracosa-1(23),2(7),3,5,20(24),21-hexaene-10,13,16-trione]
2 | CN1C(=O)[C@H](CCCCN)NC(=O)[C@H](CCCN)NCc2cccc(c2)-c2c(cccc2C(F)(F)F)CNC(=O)[C@@H]1Cc1c[nH]c2ccccc12 [Example 2, (11S,14S,17S)-14-(4-Amino-butyl)-17-(3-amino-propyl)-11-(1H-indol-3-ylmethyl)-12-methyl-3-trifluoromethyl-9,12,15,18-tetraaza-tricyclo[18.3.1.0*2,7]tetracosa-1(24),2(7),3,5,20,22-hexaene-10,13,16-trione]
32 | CN1C(=O)[C@H](CCCCN)NC(=O)[C@H](CCCN)NCc2cccc(c2)-c2ccccc2CNC(=O)[C@@H]1Cc1c[nH]c2ccccc12 [Example 1, (11S,14S,17S)-14-(4-Amino-butyl)-17-(3-amino-propyl)-11-(1H-indol-3-ylmethyl)-12-methyl-9,12,15,18-tetraaza-tricyclo[18.3.1.0*2,7]tetracosa-1(24),2(7),3,5,20,22-hexaene-10,13,16-trione]
4 | COc1ccc2c(c1)CNC(=O)[C@H](Cc1c[nH]c3ccccc13)N(C)C(=O)[C@H](CCCCN)NC(=O)[C@H](CCCN)NCc1cccc-2c1 [Example 9, (11S,14S,17S)-14-(4-Amino-butyl)-17-(3-amino-propyl)-11-(1H-indol-3-ylmethyl)-5-methoxy-12-methyl-9,12,15,18-tetraaza-tricyclo[18.3.1.0*2,7]tetracosa-1(23),2(7),3,5,20(24),21-hexaene-10,13,16-trione]
4 | CN1C(=O)[C@H](CCCCN)NC(=O)[C@H](CCCN)NCc2cccc(c2)-c2cc(C(F)(F)F)ccc2CNC(=O)[C@@H]1Cc1c[nH]c2ccccc12 [Example 8, (11S,14S,17S)-14-(4-Amino-butyl)-17-(3-amino-propyl)-11-(1H-indol-3-ylmethyl)-12-methyl-4-trifluoromethyl-9,12,15,18-tetraaza-tricyclo[18.3.1.0*2,7]tetracosa-1(24),2(7),3,5,20,22-hexaene-10,13,16-trione]
32 | CN1C(=O)[C@H](CCCCN)NC(=O)[C@H](CCCN)NCc2ccnc(c2)-c2ccc(Cl)cc2CNC(=O)[C@@H]1Cc1c[nH]c2ccccc12 [Example 11, (11S,14S,17S)-14-(4-Amino-butyl)-17-(3-amino-propyl)-5-chloro-11-(1H-indol-3-ylmethyl)-12-methyl-9,12,15,18,23-pentaaza-tricyclo[18.3.1.0*2,7]tetracosa-1(23),2(7),3,5,20(24),21-hexaene-10,13,16-trione]
32 | Cc1cccc2c1-c1cccc(c1)CN[C@@H](CCCN)C(=O)N[C@@H](CCCCN)C(=O)N(C)[C@@H](Cc1c[nH]c3ccccc13)C(=O)NC2 [Example 4, (11S,14S,17S)-14-(4-Amino-butyl)-17-(3-amino-propyl)-11-(1H-indol-3-ylmethyl)-3,12-dimethyl-9,12,15,18-tetraaza-tricyclo[18.3.1.0*2,7]tetracosa-1(23),2(7),3,5,20(24),21-hexaene-10,13,16-trione]
1 | Cc1ccc2c(c1)CNC(=O)[C@H](Cc1c[nH]c3ccccc13)N(C)C(=O)[C@H](CCCCN)NC(=O)[C@H](CCCN)NCc1cccc-2c1 [Example 7, (11S,14S,17S)-14-(4-Amino-butyl)-17-(3-amino-propyl)-11-(1H-indol-3-ylmethyl)-5,12-dimethyl-9,12,15,18-tetraaza-tricyclo[18.3.1.0*2,7]tetracosa-1(23),2(7),3,5,20(24),21-hexaene-10,13,16-trione]
4 | CN1C(=O)[C@H](CCCCN)NC(=O)[C@H](CCCN)NCc2cccc(c2)-c2ccc(Cl)cc2CNC(=O)[C@@H]1Cc1c[nH]c2ccccc12 [Example 5, (11S,14S,17S)-14-(4-Amino-butyl)-17-(3-amino-propyl)-5-chloro-11-(1H-indol-3-ylmethyl)-12-methyl-9,12,15,18-tetraaza-tricyclo[18.3.1.0*2,7]tetracosa-1(23),2(7),3,5,20(24),21-hexaene-10,13,16-trione]
0.5 | CN1C(=O)[C@H](CCCCN)NC(=O)[C@H](CCCN)NCc2cccc(c2)-c2ccc(C(F)(F)F)cc2CNC(=O)[C@@H]1Cc1c[nH]c2ccccc12 [Example 3, (11S,14S,17S)-14-(4-Amino-butyl)-17-(3-amino-propyl)-11-(1H-indol-3-ylmethyl)-12-methyl-5-trifluoromethyl-9,12,15,18-tetraaza-tricyclo[18.3.1.0*2,7]tetracosa-1(24),2(7),3,5,20,22-hexaene-10,13,16-trione]
32 | CN1C(=O)[C@H](CCCCN)NC(=O)[C@H](CCCN)NCc2cccc(c2)-c2cccc(Cl)c2CNC(=O)[C@@H]1Cc1c[nH]c2ccccc12 [Example 6, (11S,14S,17S)-14-(4-Amino-butyl)-17-(3-amino-propyl)-6-chloro-11-(1H-indol-3-ylmethyl)-12-methyl-9,12,15,18-tetraaza-tricyclo[18.3.1.0*2,7]tetracosa-1(23),2(7),3,5,20(24),21-hexaene-10,13,16-trione]
